Data: the NIST ThermoML archive (doi:10.1016/j.jct.2005.03.012)

Assay: molar heat capacity at constant pressure; xn = mol fraction of the nth substance listed
Conditions: Liquid, Flow calorimetry

CO [methanol] + O
Conditions	molar heat capacity at constant pressure [J/K/mol]
472.41 K, 8500 kPa, x1 = 0.4	110.52
472.56 K, 5000 kPa, x1 = 0.5	119.44
472.78 K, 8500 kPa, x1 = 0.2	96.55
472.91 K, 5000 kPa, x1 = 0.3	104.69
472.98 K, 5000 kPa, x1 = 0.6	127.9
473.11 K, 5000 kPa, x1 = 0.7	135.08
473.16 K, 5000 kPa, x1 = 0.8	143
473.21 K, 10000 kPa, x1 = 0.8	135.8
473.53 K, 10000 kPa, x1 = 0.2	96.73
473.95 K, 5000 kPa, x1 = 0.9	153.78
474.26 K, 5000 kPa, x1 = 0.2	96.84
474.27 K, 5000 kPa, x1 = 0.1	89.79
474.92 K, 8500 kPa, x1 = 0.8	138.52
497 K, 10000 kPa, x1 = 0.2	100.23
497 K, 10000 kPa, x1 = 0.4	117.78
497.3 K, 8500 kPa, x1 = 0.3	109.45
497.56 K, 8500 kPa, x1 = 0.4	118.93
497.97 K, 8500 kPa, x1 = 0.2	101.63
498.08 K, 8500 kPa, x1 = 0.5	128.47
498.33 K, 8500 kPa, x1 = 0.6	139.08
498.46 K, 10000 kPa, x1 = 0.6	136.33
499.19 K, 8500 kPa, x1 = 0.1	92.18
499.79 K, 8500 kPa, x1 = 0.8	166.33
499.83 K, 10000 kPa, x1 = 0.8	159.51
499.85 K, 8500 kPa, x1 = 0.7	152.5
500.37 K, 8500 kPa, x1 = 0.9	185.8
507.38 K, 10000 kPa, x1 = 0.2	104.52
507.6 K, 10000 kPa, x1 = 0.4	122.36
508.54 K, 10000 kPa, x1 = 0.6	145.98
508.68 K, 8500 kPa, x1 = 0.1	95.38
508.96 K, 8500 kPa, x1 = 0.2	103.83
509.5 K, 10000 kPa, x1 = 0.8	178.64
509.58 K, 8500 kPa, x1 = 0.4	124.67
510.29 K, 8500 kPa, x1 = 0.5	137.86
510.32 K, 8500 kPa, x1 = 0.3	114.54
511.09 K, 8500 kPa, x1 = 0.8	204.86
511.15 K, 8500 kPa, x1 = 0.7	175.97
511.4 K, 8500 kPa, x1 = 0.6	155.15
511.68 K, 8500 kPa, x1 = 0.9	268
513.62 K, 10000 kPa, x1 = 0.5	138.48
514.03 K, 10000 kPa, x1 = 0.4	126.54
514.03 K, 10000 kPa, x1 = 0.6	154.89
514.08 K, 10000 kPa, x1 = 0.3	115.36
514.53 K, 10000 kPa, x1 = 0.1	95.01
514.91 K, 10000 kPa, x1 = 0.2	105.19
514.98 K, 10000 kPa, x1 = 0.9	229.95
515.2 K, 10000 kPa, x1 = 0.8	198.37
515.25 K, 10000 kPa, x1 = 0.7	174.88
515.73 K, 8500 kPa, x1 = 0.1	95.69
516.4 K, 8500 kPa, x1 = 0.9	508.52
517.62 K, 8500 kPa, x1 = 0.2	106.77
517.97 K, 8500 kPa, x1 = 0.3	119.14
518.82 K, 8500 kPa, x1 = 0.8	303.27
519.33 K, 8500 kPa, x1 = 0.4	133.94
519.69 K, 8500 kPa, x1 = 0.7	212.23
520.61 K, 8500 kPa, x1 = 0.5	150.12
522.42 K, 8500 kPa, x1 = 0.6	186.76
